Patent US10077238B2, “Small molecule LFA-1 inhibitors” (ALLOCYTE PHARMACEUTICALS AG, priority 2014, dated 2018)

Legend:
Format in all cases: cell-based
LFA-1 [1] = molecular target: T1, LFA-1 (Homo sapiens, UniProt P20701); test: V well cell adhesion assay, LFA-1-mediated Jurkat cell binding to ICAM-1 (LFA-1 adhesion); conditions: Jurkat cells on ICAM-1/Fc; mean ±SD of ≥3 independent experiments in triplicates or single experiments in triplicates
T1 construct: endogenous in cells; host or cells: Jurkat cells
Description: Cell-Based Assay to Determine the Effect of the Compounds on LFA-1-Mediated Cell Adhesion (LFA-1 Adhesion)
Purpose of the Assay: The V well cell adhesion assay measures the ability of the compounds to interfere with LFA-1-mediated binding to ICAM-1 at cellular level. The assay has been successfully used in the past to identify and characterize small molecules LFA-1 inhibitors.
Experimental Protocol: The adhesion assay was performed in Vbottom 96-well plates as described previously [Weitz-Schmidt 2012]. Briefly, the plates were coated with anti-human IgG mAb diluted in coating buffer (20 mM Tris containing 150 mM NaCl, pH 8) (1 μg/mL) and incubated overnight at 4° C. The plates were flicked out and blocked with blocking buffer (50 mM Tris base, 150 mM NaCl, 1.5% BSA (w/v), pH 7.2) at 37° C. for 90 min. Then human recombinant ICAM-1/Fc (R&D Systems) diluted in coating buffer (0.3 μg/mL) was added to each well. The plates were incubated at 37° C. for 90 min and washed with binding buffer (50 mM Tris base, 150 mM NaCl, 1.5% BSA (w/v), 2 mM MgCl2, 2 mM MnCl2, 5 mM D-glucose monohydrate, pH 7.2-7.4) to remove unbound ligand.
Jurkat cells were cultured under standard conditions as recommended by the American Type Culture collection (ATCC). The cells were fluorescently labelled with BCECF-AM in PBS (1 μg/mL) at 37° C. for 20 min in the dark, centrifuged and washed with PBS. The test compounds were dissolved in DMSO at 10 mM and serially pre-diluted in DMSO (100%) to avoid precipitation, before performing final dilution steps in binding buffer.
The labelled Jurkat cells were re-suspended in binding buffer and test compounds or solvent control were added. The DMSO concentration was kept constant in all samples (1% DMSO as final assay concentration). After 40 min at 37° C. (LFA-1 activation and compound pre-incubation step) the cell suspension (3×10^5 cells/mL in binding buffer) was pipetted up and down and transferred to the ligand-coated microtiter V well plates (30 000 cells/well). The plates were centrifuged for 4 min at room temperature (rt) at 1000 rpm (Centrifuge Eppendorf 5810 R), setting the brake off Non-adherent cells that accumulated in the center of the Vbottom were quantified using a fluorescence reader with the filter sets allowing excitation at 485 nm and quantification of emission at 535 nm. The determination of the half maximal inhibitory concentration (IC50) of the compounds was calculated using the software GraphPad Prism 6.

VLA-4 = molecular target: T2, VLA-4 (Homo sapiens, UniProt P05556+P13612); test: V well cell adhesion assay, VLA-4-mediated Jurkat cell binding to VCAM-1 (VLA-4 adhesion); conditions: Jurkat cells on VCAM-1 Fc; single experiments run in triplicates
T2 construct: endogenous in cells; host or cells: Jurkat cells
Description: Cell-Based Assay to Determine the Selectivity of the Compounds Over the Integrin VLA-4 (VLA-4 Adhesion)
Purpose of the Assay: This V well cell adhesion assay measures the effect of the compounds on VLA-4-mediated Jurkat cell binding to VCAM-1. The assay has been successfully used in the past to determine the selectivity of small molecule LFA-1 inhibitors over the integrin VLA-4.
Experimental Protocol: The adhesion assay was performed as described above for the Jurkat/ICAM-1 V well adhesion assay. Briefly, plates were coated with anti-human IgG mAb and blocked with BSA as described above. Instead of ICAM-1, recombinant human VCAM-1/CD106 Fc chimera (R&D Systems) was coated onto the plates (0.3 μg/mL in coating buffer). After incubation, labelled Jurkat cells in binding buffer were transferred to the wells (20,000 cells/well). The plates were immediately centrifuged at 1000 rpm for 4 min at rt (Centrifuge Eppendorf 5810 R) setting the brakeoff. Non-adherent cells were quantified in the tip of the Vbottom well using a fluorescence reader. IC50 values of the compounds were calculated using the software GraphPad Prism 6.

LFA-1 [2] = molecular target: T1, LFA-1; test: Flow cytometry, mAb R7.1 binding to LFA-1 expressed on leukocytes; conditions: Jurkat cells or human PBMCs, values of independent experiments; for inhibition at 1 µM: Jurkat
Description: Measurement of mAb R7.1 binding to LFA-1 (mAb R7.1 binding)
Purpose of the Assay: This flow cytometry assay determines the effect of the compounds on the binding of the anti-LFA-1 mAb R7.1 to LFA-1 expressed on leukocytes.
Experimental Protocol: Jurkat cells or human peripheral blood mononuclear cells (PBMCs) were resuspended in assay buffer (50 mM Tris, 150 mM NaCl, 2 mM MgCl2, 1.5% BSA and 5 mM D-glucose monohydrate, pH7.2) at 2×10^6 cells/mL and 500 μL of this cell suspension (1×10^6 cells) were transferred into polypropylene tubes containing the test compounds diluted in 500 μL assay buffer. The samples were pre-incubated at 37° C. for 40 min, and centrifuged. The supernatants were removed and FITC-labelled anti-LFA-1 mAb R7.1 and PE-labeled anti-LFA-1 mAb TS2/4 (mAb TS2/4 is not affected by alpha I allosteric inhibitor binding to LFA-1) or appropriate isotype controls were added directly to each cell pellet. The pellets were then gently pipetted up and down and incubated on ice for 30 min in the dark. After the incubation step the cells were washed twice with PBS and resuspended in PBS.
Antibody binding was analyzed by flow cytometry. Mean fluorescence intensities (MFI) were calculated using the CellQuest software. The values are expressed as % of solvent control (solvent control=100% binding).

LFA-1 [3] = molecular target: T1, LFA-1; test: Flow cytometry, mAb MEM148 binding to LFA-1 expressed on leukocytes; conditions: solvent ctrl = 1, Jurkat cells or PBMCs
Description: Quantification of mAb MEM148 Binding to LFA-1 (mAb MEM148 Binding)
Purpose of the Assay: This flow cytometry assay determines the effect of the compounds on the binding of the conformation-sensitive anti-LFA-1 mAb MEM148 to LFA-1 expressed on leukocytes. The mAb MEM148 detects an epitope which becomes exposed in activated LFA-1 [Yuki 2012]
Experimental Protocol: The assay is performed as the flow cytometry assay described above.
Briefly, Jurkat cells or PBMCs in assay buffer (50 mM Tris, 150 mM NaCl, 1 mM CaCl2, 1 mM MgCl2, 5 mM Glucose, 1.5% BSA, pH 7.3) were pre-incubated with the compounds and appropriate positive controls for 40 min at rt. After incubation, the cell-suspension was centrifuged, the supernatant discarded and PE-labelled anti-LFA-1 mAb MEM148 was directly added to the pellets. After pipetting up and down, the tubes were incubated for 30 min. at 37° C. in the dark. The pellet was washed twice with 1 mL PBS and resuspended in PBS. Antibody binding was quantified by flow cytometry. Mean fluorescence intensities (MFI) were calculated using the CellQuest software.

Jurkat cells [4] = test: Toxilight BioAssay (adenylate kinase release), Jurkat; conditions: 24 hours exposure, mean ± SD of triplicates
Source text: (§1) Assessment of Cellular Toxicity (Toxilight Assay and CellTiter-Glo Assay)
(§2) Purpose. To detect potential cellular toxicity of present LFA-1 inhibitors two complementary assays were chosen: the Toxilight™ BioAssay (Lonza) and the CellTiter-Glo™ Luminescent Cell Viability Assay (Promega). The Toxilight assay measures cell death via the release of the cytosolic enzyme adenylate kinase into the supernatant of treated cell cultures. The CellTiter-Glo assay directly determines the key energy metabolite ATP, resulting in sensitive quantitation of the number of healthy cells in culture.
(§3) Both assays were used with two different cell lines: the Jurkat and HepG2 cell lines. Jurkat, a human lymphocytic leukemia cell line, was utilized to assess the effect of the compounds on LFA-1 expressing cells. HepG2, a human hepatocyte cell line, was used to assess the response of liver cells where drugs are metabolized. Both assays included the use of untreated cells, and cells treated with amiodarone or 0.5% Triton X 100 as cytotoxic controls.
(§4) Jurkat cells and HepG2 cells were cultured in RPMI 1640 containing 10% FCS or DMEM containing 10% FCS under standard conditions (recommended by ATCC). Compounds were dissolved in DMSO and serially pre-diluted in DMSO (100%) to avoid precipitation of the compounds, before final dilution steps in culture medium containing FCS were performed. The final DMSO concentration was kept constant at 0.5% in all samples.
(§5) The test compounds and controls were exposed to the cells for 24 hours respectively at 37° C. Then adenylate kinase activity was quantified in the supernatant of the cell cultures using the ToxiLight™ reagent. In an independent set of experiments ATP content was measured by adding the CellTiter-Glo™ reagent according to manufacturer's instructions.

HepG2 cells [5] = test: Toxilight BioAssay (adenylate kinase release), HepG2; conditions: 24 hours exposure, mean ± SD of triplicates
Source text: as §1, §2, §3, §4, §5

Jurkat cells [6] = test: CellTiter-Glo Luminescent Cell Viability Assay (ATP), Jurkat; conditions: 24 hours exposure, mean ± SD of triplicates
Source text: as §1, §2, §3, §4, §5

HepG2 cells [7] = test: CellTiter-Glo Luminescent Cell Viability Assay (ATP), HepG2; conditions: 24 hours exposure, mean ± SD of triplicates
Source text: as §1, §2, §3, §4, §5

T2 sequence (P13612 34-1032): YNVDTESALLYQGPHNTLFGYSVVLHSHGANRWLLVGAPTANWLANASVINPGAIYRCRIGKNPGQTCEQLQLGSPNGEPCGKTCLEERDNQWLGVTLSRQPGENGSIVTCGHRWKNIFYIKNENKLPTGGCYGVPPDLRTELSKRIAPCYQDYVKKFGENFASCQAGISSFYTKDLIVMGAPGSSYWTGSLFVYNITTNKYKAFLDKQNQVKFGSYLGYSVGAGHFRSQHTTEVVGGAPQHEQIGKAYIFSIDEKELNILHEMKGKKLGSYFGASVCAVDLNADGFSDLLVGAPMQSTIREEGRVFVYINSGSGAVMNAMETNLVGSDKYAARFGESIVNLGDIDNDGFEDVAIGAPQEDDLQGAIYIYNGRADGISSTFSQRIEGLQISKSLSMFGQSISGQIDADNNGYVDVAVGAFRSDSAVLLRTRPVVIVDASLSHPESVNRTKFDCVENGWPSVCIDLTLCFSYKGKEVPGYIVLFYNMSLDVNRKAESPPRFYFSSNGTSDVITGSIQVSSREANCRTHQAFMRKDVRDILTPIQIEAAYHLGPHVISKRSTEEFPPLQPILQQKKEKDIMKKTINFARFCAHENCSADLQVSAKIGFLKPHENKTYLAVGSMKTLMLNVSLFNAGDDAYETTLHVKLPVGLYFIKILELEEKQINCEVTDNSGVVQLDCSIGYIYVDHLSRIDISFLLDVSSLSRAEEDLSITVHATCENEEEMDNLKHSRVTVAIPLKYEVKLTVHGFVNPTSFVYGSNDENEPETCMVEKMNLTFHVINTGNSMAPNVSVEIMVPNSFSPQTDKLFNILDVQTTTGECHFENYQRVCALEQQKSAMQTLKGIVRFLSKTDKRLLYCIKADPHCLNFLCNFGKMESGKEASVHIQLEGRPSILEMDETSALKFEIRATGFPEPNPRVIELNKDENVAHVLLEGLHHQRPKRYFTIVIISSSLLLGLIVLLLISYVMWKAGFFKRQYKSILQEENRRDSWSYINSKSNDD
T2 sequence (P05556 21-798): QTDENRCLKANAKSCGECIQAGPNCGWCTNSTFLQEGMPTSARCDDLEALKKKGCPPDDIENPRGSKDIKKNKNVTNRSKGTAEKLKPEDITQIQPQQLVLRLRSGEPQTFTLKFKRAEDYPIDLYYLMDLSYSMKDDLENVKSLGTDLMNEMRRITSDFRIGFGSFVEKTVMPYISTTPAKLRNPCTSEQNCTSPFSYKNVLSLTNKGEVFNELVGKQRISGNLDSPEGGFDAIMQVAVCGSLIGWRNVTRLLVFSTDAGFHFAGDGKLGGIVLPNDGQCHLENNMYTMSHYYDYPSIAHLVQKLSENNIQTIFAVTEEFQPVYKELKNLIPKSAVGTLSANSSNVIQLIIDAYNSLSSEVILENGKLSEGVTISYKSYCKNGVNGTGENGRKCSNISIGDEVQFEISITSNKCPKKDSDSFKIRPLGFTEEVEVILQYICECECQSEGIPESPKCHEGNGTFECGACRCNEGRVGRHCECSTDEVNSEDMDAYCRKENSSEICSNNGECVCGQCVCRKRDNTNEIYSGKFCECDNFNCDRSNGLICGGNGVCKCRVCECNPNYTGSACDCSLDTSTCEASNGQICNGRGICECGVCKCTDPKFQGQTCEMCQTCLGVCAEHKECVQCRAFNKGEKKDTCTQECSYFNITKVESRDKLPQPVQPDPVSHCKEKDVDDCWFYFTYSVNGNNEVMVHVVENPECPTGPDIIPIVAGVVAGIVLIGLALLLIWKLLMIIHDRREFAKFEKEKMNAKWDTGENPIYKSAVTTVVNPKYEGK
T1 sequence (P20701 26-1170): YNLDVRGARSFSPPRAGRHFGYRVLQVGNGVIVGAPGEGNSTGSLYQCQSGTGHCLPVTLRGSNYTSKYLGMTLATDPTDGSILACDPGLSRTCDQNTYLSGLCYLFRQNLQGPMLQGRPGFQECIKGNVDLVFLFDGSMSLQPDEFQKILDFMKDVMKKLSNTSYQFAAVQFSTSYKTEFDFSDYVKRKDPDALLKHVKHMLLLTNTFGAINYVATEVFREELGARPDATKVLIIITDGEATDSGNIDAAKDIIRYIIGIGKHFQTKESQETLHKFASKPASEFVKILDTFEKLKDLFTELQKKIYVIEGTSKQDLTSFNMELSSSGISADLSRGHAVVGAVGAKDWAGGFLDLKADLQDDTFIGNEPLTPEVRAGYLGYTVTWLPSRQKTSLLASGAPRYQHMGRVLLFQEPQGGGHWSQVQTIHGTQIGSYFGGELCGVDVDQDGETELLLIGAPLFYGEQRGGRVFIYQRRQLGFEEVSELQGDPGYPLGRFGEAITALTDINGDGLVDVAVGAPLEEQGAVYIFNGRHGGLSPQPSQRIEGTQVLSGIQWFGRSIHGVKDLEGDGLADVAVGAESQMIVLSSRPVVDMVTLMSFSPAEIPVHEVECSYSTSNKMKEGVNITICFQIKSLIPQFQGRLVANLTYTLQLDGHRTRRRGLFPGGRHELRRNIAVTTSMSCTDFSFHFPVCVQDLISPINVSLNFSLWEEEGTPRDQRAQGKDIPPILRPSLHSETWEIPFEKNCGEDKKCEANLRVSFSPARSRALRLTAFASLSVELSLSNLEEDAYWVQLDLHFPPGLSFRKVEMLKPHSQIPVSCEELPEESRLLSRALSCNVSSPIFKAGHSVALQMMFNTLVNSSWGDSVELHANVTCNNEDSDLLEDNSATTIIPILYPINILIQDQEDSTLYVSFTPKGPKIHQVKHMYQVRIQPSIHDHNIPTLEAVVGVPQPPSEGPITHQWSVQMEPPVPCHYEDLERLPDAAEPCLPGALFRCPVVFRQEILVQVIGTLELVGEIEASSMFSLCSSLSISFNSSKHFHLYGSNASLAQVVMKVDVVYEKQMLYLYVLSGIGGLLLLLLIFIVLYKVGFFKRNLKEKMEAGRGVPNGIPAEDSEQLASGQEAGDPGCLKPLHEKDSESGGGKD
T1 sequence (P05107 23-769 partner): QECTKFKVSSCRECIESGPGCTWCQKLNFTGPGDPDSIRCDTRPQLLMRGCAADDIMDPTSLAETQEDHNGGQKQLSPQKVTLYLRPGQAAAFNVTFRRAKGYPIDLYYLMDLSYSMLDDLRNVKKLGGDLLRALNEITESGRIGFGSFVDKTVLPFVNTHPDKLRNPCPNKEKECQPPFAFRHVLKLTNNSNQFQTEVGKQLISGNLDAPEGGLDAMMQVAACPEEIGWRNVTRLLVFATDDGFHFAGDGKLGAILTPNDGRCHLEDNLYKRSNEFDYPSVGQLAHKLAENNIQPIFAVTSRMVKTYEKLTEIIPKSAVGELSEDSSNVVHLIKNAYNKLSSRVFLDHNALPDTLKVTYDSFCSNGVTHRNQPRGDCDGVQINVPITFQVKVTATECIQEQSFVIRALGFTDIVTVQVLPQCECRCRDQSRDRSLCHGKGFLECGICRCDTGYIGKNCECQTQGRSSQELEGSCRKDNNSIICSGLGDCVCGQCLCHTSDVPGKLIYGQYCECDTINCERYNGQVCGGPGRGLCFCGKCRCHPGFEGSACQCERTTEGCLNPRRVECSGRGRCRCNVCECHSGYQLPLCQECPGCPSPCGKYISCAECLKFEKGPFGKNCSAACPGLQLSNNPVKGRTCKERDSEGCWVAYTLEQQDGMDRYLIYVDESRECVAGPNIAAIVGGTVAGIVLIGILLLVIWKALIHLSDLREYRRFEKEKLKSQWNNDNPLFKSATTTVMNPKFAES

Row | SMILES | IC50 (LFA-1 [1]) | IC50 (VLA-4) | mAb R7.1 binding % inhibition at 1 μM (LFA-1 [2]) | inhibition at 1 µM (LFA-1 [2]) | mAb MEM148 binding, binding relative to solvent ctrl at 10 μM (LFA-1 [3]) | Toxilight Jurkat % viability at 10 μM (Jurkat cells [4]) | Toxilight HepG2 % viability at 10 μM (HepG2 cells [5]) | CellTiter-Glo Jurkat % viability at 10 μM (Jurkat cells [6]) | CellTiter-Glo HepG2 % viability at 10 μM (HepG2 cells [7])
1 | C[C@]12C(=O)N(c3cc(Cl)cc(Cl)c3)C(=O)[C@H]1[C@H]2c1ccc(Br)cc1 (racemic) [4′f (racemate), rac-(1R,5S,6S)-6-(4-Bromophenyl)-3-(3,5-dichloro-phenyl)-1-methyl-3-azabicyclo[3.1.0]hexane-2,4-dione] | 0.715 ± 0.618 µM | > 10 µM | 91.7% | 85.2% | 0.96 | 99.9 ± 24.2% | 115.6 ± 35.1% | 115.0 ± 4.8% | 101.6 ± 4.0%
2 | C[C@]12C(=O)N(c3cc(Cl)cc(Cl)c3)C(=O)[C@H]1[C@H]2c1ccc(OC(F)(F)F)cc1 (racemic) [4′g (racemate), rac-(1R,5S,6S)-3-(3,5-Dichlorophenyl)-1-methyl-6-[4-(trifluoromethoxy)phenyl]-3-azabicyclo[3.1.0]hexane-2,4-dione] | 0.55 ± 0.206 µM | > 10 µM | 94.1% | 93.6% | 0.89 | 116 ± 16.2% | 99.8 ± 26.5% | 111.4 ± 7.4% | 102.6 ± 4.5%
3 | C[C@]12C(=O)N(c3cc(Cl)cc(Cl)c3)C(=O)[C@H]1[C@H]2c1ccc(C#N)cc1 (racemic) [4′h (racemate), rac-4-[(1R,5S,6S)-3-(3,5-Dichlorophenyl)-1-methyl-2,4-dioxo-3-azabicyclo[3.1.0]hexan-6-yl]benzonitrile] | 0.147 µM | > 10 µM | 95.8% | 96.8% | 1.00 | 93.5 ± 2.06% | 78.3 ± 35.2% | 112.6 ± 4.9% | 103.7 ± 3.2%
4 | CC12C(=O)N(c3cc(Cl)cc(Cl)c3)C(=O)C1C2(c1ccccc1)c1ccccc1 (single isomer, unassigned) [4b enantiomer A] | 1.34 ± 0.678 µM | > 10 µM | – | 87.3% | no | 100 ± 12.9% | 120 ± 40.2% | 92.8 ± 4.7% | 101.5 ± 1.9%
5 | C[C@]12C(=O)N(c3cc(Cl)cc(Cl)c3)C(=O)[C@H]1C2(c1ccccc1)c1ccccc1 (racemic) [4b (racemate), rac-(1S,5S)-3-(3,5-Dichlorophenyl)-1-methyl-6,6-diphenyl-3-azabicyclo[3.1.0]hexane-2,4-dione] | 1.87 ± 1.27 µM | > 10 µM | 80.0% | 76.9% | 0.974 | 101 ± 9.8% | 124 ± 29.7% | 96.8 ± 4.7% | 98.4 ± 3.8%
